Laboratory results from paper PMC8982737, “Discovery of S-217622, a Noncovalent Oral SARS-CoV-2 3CL Protease Inhibitor Clinical Candidate for Treating COVID-19” (Journal of Medicinal Chemistry, 2022).

System: SARS-CoV-2
Experiment: microbe, parasite or virus in culture
Assay type: cell-based
Settings: Severe acute respiratory syndrome coronavirus 2, VeroE6/TMPRSS2; read-out: EC50 against all tested SARS-CoV-2 variants

Cn1cnc(Cn2c(=O)[nH]/c(=N\c3cc4cn(C)nc4cc3Cl)n(Cc3cc(F)c(F)cc3F)c2=O)n1 [Compound 3, (6E)-6-[(6-Chloro-2-methyl-2H-indazol-5-yl)imino]-3-[(1-methyl-1H-1,2,4-triazol-3-yl)methyl]-1-(2,4,5-trifluorobenzyl)-1,3,5-triazinane-2,4-dione]
EC50: 290 to 500 nM
